US11311593B2, “Root extracts from plants of the Morus genus and uses of same” (PLANT ADVANCED TECHNOLOGIES PAT, priority 2017, dated 2022)

Experiments:
[1] = molecular target: T1, hyaluronidase originating from bull testicles (type IV-S) (Bos taurus, UniProt Q2YDK3); assay: Anti-hyaluronidase inhibiting activity, hyaluronic acid as substrate, precipitation with acidic BSA; type: biochemical
T1 construct: hyaluronidase originating from bull testicles (type IV-S); from tissue; host or cells: bull testicles
T1 sequence (Q2YDK3 36-553): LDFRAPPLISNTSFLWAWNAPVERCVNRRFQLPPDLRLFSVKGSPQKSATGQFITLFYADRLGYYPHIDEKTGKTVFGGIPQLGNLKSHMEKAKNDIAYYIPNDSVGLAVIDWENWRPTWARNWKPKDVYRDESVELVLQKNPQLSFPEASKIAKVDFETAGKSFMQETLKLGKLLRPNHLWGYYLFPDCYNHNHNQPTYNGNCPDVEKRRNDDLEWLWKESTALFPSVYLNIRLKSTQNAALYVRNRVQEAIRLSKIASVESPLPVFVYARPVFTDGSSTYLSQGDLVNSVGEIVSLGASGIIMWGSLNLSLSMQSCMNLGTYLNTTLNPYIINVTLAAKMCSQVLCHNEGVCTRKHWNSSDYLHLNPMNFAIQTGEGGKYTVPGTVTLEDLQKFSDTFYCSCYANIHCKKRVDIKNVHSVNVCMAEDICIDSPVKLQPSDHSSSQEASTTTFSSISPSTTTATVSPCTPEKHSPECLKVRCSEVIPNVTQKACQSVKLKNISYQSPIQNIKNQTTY
Method: A root extract of Morus Alba was prepared in accordance with the protocol described in Example 5. Hyaluronidase catalyzes the hydrolysis of hyaluronic acids into monosaccharides, disaccharides and short oligosaccharides. The measurement of the anti-hyaluronidase inhibiting activity was carried out using hyaluronic acid (HA) as a substrate in order to follow its reduction during the enzymatic reaction, the slope of the reduction of the concentration of HA during the reaction being proportional to the enzymatic activity.
The concentration of HA was measured in accordance with the following principle: in the presence of an acidic solution of bovine serum albumin, HA precipitates. Thus, in the case of the presence of HA, a precipitate is formed and in the case of complete hydrolysis of the HA, no precipitate is observed. Thus, the quantity of precipitation is proportion& to the HA content. […]
In order to follow the enzymatic degradation of the HA, a volume of 50 μl of RM was removed every 15 minutes, mixed with a volume of 250 μL of the solution of acidic BSA (acidic solution of bovine serum albumin: 24 mM sodium acetate, 79 mM acetic add and 0.1% (w/v) bovine serum albumin, pH 3.75) then incubated for 10 min at ambient temperature. The quantity of precipitate formed was then measured using a plate reader (diffusion of light at 600 nm). […]

[2] = tested on: fungal tyrosinase; assay: Target Binding affinity test for tyrosinase (UPLC-MS of bound ligands)
Excerpt: It is based on the principle of bringing the ligands and the target into contact in the liquid phase so that the ligands that have the greatest affinity with the target bind to it, elimination of the ligands that are not fixed, separation of the complexes in order to recover the ligands which have been fixed, then quantification of the latter. In a first step of the method, the extract and the target are mixed. The compounds of the extract compete for access to the binding sites of the target. The strongest compounds displace the weakest and are retained more effectively by the target. […] A reference sample was also prepared by diluting the sample to be analyzed 10-fold in a solution of water and a quarter of the volume of acetonitrile. […] Pre-conditioning step-Wells with a filtering membrane were pre-conditioned with a volume of 500 μL of an 85% solution of ammonium acetate and 15% of ethanol which was passed through the membrane by centrifuging at 14000 g for 60 seconds. 2. […] 3. Washing step-The mixture of the enzyme and the sample to be analyzed was deposited in a well that had been pre-conditioned in the pre-conditioning step, then centrifuged at 14000 g until most of the solvent had been eliminated. […] This procedure was repeated three times and eliminated all of the compounds that were not bound to the enzyme. 4. Separation step-The enzyme-ligand complexes retained in the filter were re-suspended in a volume of 10 μL of ultra-pure water, then mixed with a volume of 40 μL of acetonitrile in order to denature and precipitate the enzyme and, at the same time, to liberate the ligands. The mixture was centrifuged at 21000 g for 10 min in order to separate the precipitate from the supernatant. 5. Analysis step-Said supernatant was analyzed by liquid phase chromatography coupled to a mass spectrometer, also known by the acronym UPLC-MS. The reference sample was also analyzed in the same manner, using the same analytical conditions. The UPLC-MS analysis was carried out in accordance with the protocol described in Example 1. The chromatograms obtained are presented in FIGS. 3A and 3B and represent a signal intensity as a function of retention time in a column. […] Each peak is associated with one of the ligands present in the analyzed extract. The quantity associated with each ligand corresponds to the area of the peak. […] For each ligand, an affinity ratio, RACEi, was calculated as follows: [formula] where: NF is a normalization factor; […] the intensity of the analytical signal for the ligand CEi in the reference sample; ISeq,REF is the intensity of the analytical signal for the reference ligand REF (here, moracenin B) in the reference sample; […] the intensity of the analytical signal for the ligand CEi in the treated solution (the sample to be analyzed after steps 2 to 4 for binding and separation of the ligands) for the detached ligands; ISTB,REF is the intensity of the analytical signal for the reference ligand REF (here, moracenin B) in the treated solution (the sample to be analyzed after steps 2 to 4 for binding and separation of the ligands) for the detached ligands; RA, CEi is the relative affinity ratio (RA), representing an affinity of the ligand CEi for the target. The value of the ratio increases with affinity.

[3] = tested on: collagenase obtained from Clostridium Histolyticum; assay: Target Binding affinity test for collagenase; details: ligands in non-stimulated M. alba root extract; moracenin B = reference ligand
Method: A root extract of Morus alba was prepared in accordance with the protocol described in Example 2.1. The Target Binding® method used was that of Example 2.3 which is described in patent application FR 1 670 545. The experimental protocol was as follows:
The target, a 6.25 mg/mL solution of collagenase obtained from Clostridium histolyticum, was prepared by dissolving lyophilized enzyme powder in 50 mM saline phosphate buffer with a pH of 7.5. The sample to be analyzed corresponded to the supernatant of the root extract obtained in accordance with Example 2.1. It could be centrifuged once again before use, at 21000 g for 15 min, in order to remove any traces of solid particles. A reference sample was also prepared by diluting the sample to be analyzed 10-fold in a solution of water and a quarter of the volume of acetonitrile.
1. Preconditioning step—Wells with a filtering membrane were preconditioned with a volume of 500 μL of a saline phosphate buffer which was passed through the membrane by centrifuging at 14000 g for 60 seconds.
2. Binding step—A volume of 92.5 μL of the solution obtained from the pretreatment step was mixed with 7.5 μL of the sample to be analyzed for 10 min in a plastic Eppendorf tube.
3. Washing step—The mixture of the enzyme and the sample to be analyzed was deposited in a well that had been preconditioned in the preconditioning step, then centrifuged at 14000 g until most of the solvent had been eliminated. The enzyme-ligand complexes remained on the surface of the filter membrane, then were re-suspended in a volume of 100 μL of the same saline phosphate buffer solution and centrifuged at 14000 g until the solvent had been eliminated. This procedure was repeated three times and eliminated all of the compounds that were not bound to the enzyme. 4. Separation step—The enzyme-ligand complexes retained in the filter were re-suspended in a volume of 10 μL of ultra-pure water then mixed with a volume of 30 μL of acetonitrile in order to denature and precipitate the enzyme and, at the same time, to liberate the ligands. The mixture was centrifuged at 21000 g for 10 min in order to separate the precipitate from the supernatant. 5. Analysis step—Said supernatant was analyzed by liquid phase chromatography coupled to a mass spectrometer. The reference sample was also analyzed in the same manner, using the same analytical conditions.
(§1) The UPLC-MS analysis was carried out in accordance with the protocol described in Example 1.

[4] = tested on: hyaluronidase; assay: Target Binding affinity test for hyaluronidase; details: ligands in non-stimulated M. alba root extract; moracenin B = reference ligand
Method: A root extract of Morus Alba was prepared in accordance with the protocol described in Example 2.1. The Target Binding® method used was that of Example 2.3 which is described in patent application FR 1 670 545. The experimental protocol was as follows: The target, a 5 mg/mL solution of hyaluronidase, was prepared by dissolving powdered lyophilized enzyme in 50 mM sodium phosphate, with a pH of 7.0. The extract corresponded to the supernatant obtained in accordance with Example 2.1. It could optionally be centrifuged once again before use, at 21000 g for 15 min, in order to eliminate the solid particles before use. A reference sample was also prepared by diluting the sample 10-fold in a solution of water and a quarter of the volume of acetonitrile.
1. Preconditioning step—Wells with a filtering membrane were preconditioned with a volume of 500 μL of a solution of 50 mM sodium phosphate, at a pH of 7.0 which was passed through the membrane by centrifuging at 14000 g for 60 seconds.
2. Binding step—The hyaluronidase preparation (5 mg/mL) was mixed with 7.5 μL of the root extract for 5 min in a plastic Eppendorf tube.
3. Washing step—the mixture of the enzyme and the root extract was deposited in a well that had been preconditioned in the preconditioning step, then centrifuged at 14000 g until most of the solvent had been eliminated. The enzyme-ligand complexes remained on the surface of the membrane of the filter then were re-suspended in a volume of 100 μL of the same solution of 50 mM sodium phosphate at a pH of 7.0, and centrifuged at 14000 g until the solvent had been eliminated. This procedure was repeated three times and eliminated all of the compounds that were not bound to the enzyme. 4. Separation step—The enzyme-ligand complexes retained in the filter were re-suspended in a volume of 10 μL of ultra-pure water then mixed with a volume of 40 μL of acetonitrile in order to denature and precipitate the enzyme and at the same time to liberate the ligands. The mixture was centrifuged at 21000 g for 10 min in order to separate the precipitate from the supernatant. 5. Analysis step—Said supernatant was analyzed by liquid phase chromatography coupled to a mass spectrometer, also known by the acronym UPLC-MS. The reference sample was also analyzed in the same manner, using the same analytical conditions.
as §1

Compound	inhibition at 10 µM [1] [%]	Relative affinity (RA) for tyrosinase ([2]; ligands in non-stimulated M. alba root extract, moracenin B = reference ligand)	affinity for tyrosinase compared with the other compounds of the extract (in words) ([2]; peak areas of FIG. 3B / relative affinities)	Relative affinity (RA) for collagenase [3]	Relative affinity (RA) for hyaluronidase [4]
O=c1c(O)c(-c2ccc(O)c(O)c2)oc2cc(O)cc(O)c12 [quercetin, reference compound]	15.6				
CC(C)=CCc1c(O)ccc(C(=O)C2C(c3c(O)cc(-c4cc5ccc(O)c(CC=C(C)C)c5o4)cc3O)C=C(C)CC2c2ccc(O)cc2O)c1O (centres unmarked) [Mulberrofuran T, mulberrofuran T]		36.2	greater affinity	1.1	2.7
